Results as given in article PMC11726150, “Pre‐ADMET studies of 5‐(3′,4′‐dihydroxyphenyl)‐γ‐valerolactone, the bioactive intestinal metabolite of proanthocyanidins” (Archiv Der Pharmazie, 2024).
Entries after “also recorded” stand apart in the source; their conditions may differ. Like-named read-outs stand apart in the source and are kept apart here.

Tests used:
[1] = MTT cell viability assay; assay type: cell-based, human; conditions: human, Caco2 cells; Caco2, 1.5–50 µM, 6 h exposure; read-out: cells remaining viable
Description: (§1) The effect of test samples on cell viability was measured using an MTT assay. Briefly, exponentially growing 2 × 10^4 cells/200 μL were seeded in 96‐well plates and allowed to grow until reaching their differentiation state. Cells were treated with different concentrations of VL (50–1.6 µM) and positive control camptothecin (30–1 μM) serially diluted in serum‐free medium. After incubation, 10 μL of MTT dye (5 mg/mL stock in PBS) was added to each well, and plates were additionally incubated for 4 h. Further, media were aspirated, and cells were washed with 100 μL of phosphate buffer saline. The formazan blue crystals formed by viable cells were dissolved in 150 μL of DMSO, and the absorbance was measured at 580 nm on a Bio‐Tek, Synergy HT Multi‐Mode, plate reader. The % decrease in viability of sample‐treated cells was calculated compared with vehicle‐treated cells.^[ [46] ^]

[2] = tested on: Caco2 cells; experiment: MTT cell viability assay; assay type: cell-based, human; conditions: Caco2, 1.5–50 µM, up to 24 and 48 h
Description: as §1

[3] = tested on: LS174T cells; experiment: MTT cell viability assay; assay type: cell-based, human; conditions: 1.5–50 µM, up to 24 and 48 h
Description: as §1

[4] = tested on: HepG2 cells; experiment: MTT cell viability assay; assay type: cell-based, human; conditions: HepG2, 1.5–50 µM, up to 24 and 48 h
Description: as §1

[5] = Metabolic stability assay with human S9 liver fraction; assay type: in vitro ADME
Description: HLMs and S9 fractions were used to determine, respectively, phases I and II metabolism of VL. A mixture of the activating cofactors (NADP^+ and UDPGA) and enzymes (G6PO4 and G6PDH) were used to stimulate the metabolism; in the microsome assay UDPGA was not needed. The final concentrations of cofactors NADPH and UDPGA were 1 mM each, while for the enzymes G6PO4 and G6PDH were 10 mM and 2 U/mL, respectively. The phosphate buffer was prepared as a 100 mM solution, pH 7.4, containing 10 mM magnesium chloride in deionized water. Testosterone and 7‐hydroxycoumarin were used as positive controls for phases I and II metabolism, and stock reference solutions of controls and VL were prepared, respectively, at 5 mM and 10 mM concentration in DMSO, and then diluted to a final test concentration of 10 µM. S9 fraction or microsome, final concentration 1 mg/mL, were preincubated with a test compound for 5 min at 37°C in the phosphate buffer, pH 7.4, and then the reactions were initiated by adding the cofactor mixture. A negative control sample was prepared replacing the reaction enzymes with water in the presence of a reaction mixture and test compound VL. At time points 0, 10, 20, 30, 45, 60, 90, and 120 min, 100 µL aliquots of the sample mixture were removed and quenched by the addition of two volumes of ice‐cold 50:50 ACN:MeOH containing the internal standard (cinnamic acid‐d6, 300 ng/mL final concentration). The quenched samples were then stored at −80°C overnight and defrosted before analysis, sonicated for 10 min, and centrifuged at 14,000 rpm for 15 min at 4°C to sediment the precipitated proteins before injection onto ultra performance liquid chromatography‐mass/mass (UPLC‐MS/MS) for analysis. T ½ was calculated using the interpolating point method using the nonlinear fit option of GraphPad Prism 8, while intrinsic clearance CL'int (mL/min/kg) was calculated as written in Equation (4) and as reported previously:^[ [23] ^] (4) CL^′int=0.693×Dose/T½.

[6] = MTT cell viability assay; assay type: cell-based, canine; conditions: dog, Wt-MDCK cells, 1.5–50 µM, 6 h exposure, read-out: cells remaining viable
Description: as §1

[7] = target: T1, PXR (Homo sapiens, UniProt O75469); assay type: cell-based; parameters: expressed in transfected cells; host or cells: LS174T cells, transient electroporation; conditions: LS174T cells, all concentrations tested (1.5–50 μM), 24 h
T1 sequence (O75469 1-434): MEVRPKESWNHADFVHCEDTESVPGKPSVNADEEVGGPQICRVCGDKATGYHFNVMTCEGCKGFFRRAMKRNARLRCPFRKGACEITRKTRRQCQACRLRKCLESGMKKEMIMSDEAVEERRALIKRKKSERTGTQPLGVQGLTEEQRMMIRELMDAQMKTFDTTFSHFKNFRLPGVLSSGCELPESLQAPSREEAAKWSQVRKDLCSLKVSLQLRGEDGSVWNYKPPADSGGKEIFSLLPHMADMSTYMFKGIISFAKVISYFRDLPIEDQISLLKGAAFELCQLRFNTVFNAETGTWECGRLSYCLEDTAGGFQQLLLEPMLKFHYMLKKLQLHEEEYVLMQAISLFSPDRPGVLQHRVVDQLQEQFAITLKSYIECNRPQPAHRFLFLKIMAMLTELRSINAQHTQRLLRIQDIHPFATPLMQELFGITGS
Description: The PXR activation potential of VL was determined in transiently transfected HepG2 and LS174T cells as described earlier.^[ [50] ^] In brief, 24‐h‐old cells having 70%−80% confluency were trypsinized and transfected with pSG5‐hPXR (25 μg) and PCR‐5 (25 μg) plasmid DNA by electroporation at 180 V (1 pulse for 70 ms). Cells were incubated at room temperature for 8 min and floating dead cells were carefully removed. Cells were seeded in 96‐well plates at a density of 50,000 cells/well. […] Following 24 h of incubation, the culture medium was aspirated and 40 μL of luciferase reagent (Promega Corporation) was added to each well. Luminescence was measured using a Spectramax M5 plate reader (Molecular Devices) and the fold increase in luciferase activity among sample‐treated cells was calculated in comparison with the vehicle‐treated (DMSO) cells.

## O=C1CCC(Cc2ccc(O)c(O)c2)O1 (stereo not shown) [VL, 5‐(3′,4′‐dihydroxyphenyl)‐γ‐valerolactone]
[1]
  viability at 6 h: > 90%
[2]
  effect on cell viability: no significant effect
[3]
  effect on cell viability: no significant effect
[4]
  effect on cell viability: no significant effect
[5]; S9 liver fraction, 120 min
  VL metabolized in the liver fraction: 70.83%
[5]; human S9 fraction 1 mg/mL, 10 µM
  intrinsic clearance: 0.784 µM/min
[5]; liver S9 fraction, pH 7.4, human S9 fraction 1 mg/mL, 10 µM, NADPH + UDPGA, read-out: half‐life t ½
  half-life at 10 µM: 8.72 min
[5]; reaction enzymes replaced with water, data not shown
  stability under negative control experimental conditions: stable
[6]
  viability at 6 h: > 90%
[7]
  PXR transcriptional activity, fold increase vs vehicle: does not increase the PXR activity; also recorded: < twofold
